Measured values: PubChem BioAssay AID248 (DTP/NCI, 2004)
Values joined by “and” are separate entries in the source; they are usually repeats but may differ in a detail not shown here. Equal entries are not always repeated. Toxic doses and inconclusive results are not listed. Cut-off read from the data, not from the text of the source: active = T/C of 150% or more; inactive = T/C below 125%.

Test system: L1210 leukemia ip in BDF1 mice, survival T/C
Assay: NCI In Vivo Anticancer Drug Screen. Data for tumor model L1210 Leukemia (intraperitoneal) in B6D2F1 (BDF1) mice
Settings: endpoint: mean survival time, higher = longer survival
How it was run: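 Tumor was transplanted into mice, which were then dosed with test compound or vehicle alone. Survival was recorded for each group, and the treated figure was expressed relative to the control figure.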

[1] = dose: 100.0 mg/kg/injection, schedule: Q04DX003 (ip), vehicle: Klucel (hydroxypropylcellulose) (HPC)
[2] = dose: 200.0 mg/kg/injection, schedule: Q04DX003 (ip), vehicle: Klucel (hydroxypropylcellulose) (HPC)
[3] = dose: 100.0 mg/kg/injection, schedule: Q04DX002 (ip), vehicle: Klucel (hydroxypropylcellulose) (HPC)
[4] = dose: 50.0 mg/kg/injection, schedule: Q01DX009 (ip), vehicle: saline
[5] = dose: 100.0 mg/kg/injection, schedule: Q01DX009 (ip), vehicle: saline
[6] = dose: 100.0 mg/kg/injection, schedule: Q01DX009 (ip), vehicle: saline with Tween-80
[7] = dose: 200.0 mg/kg/injection, schedule: Q01DX009 (ip), vehicle: saline with Tween-80
[8] = dose: 400.0 mg/kg/injection, schedule: Q01DX009 (ip), vehicle: saline with Tween-80
[9] = dose: 100.0 mg/kg/injection, schedule: Q01DX001 (ip), vehicle: carboxymethylcellulose (CMC)
[10] = dose: 200.0 mg/kg/injection, schedule: Q01DX001 (ip), vehicle: carboxymethylcellulose (CMC)
[11] = dose: 400.0 mg/kg/injection, schedule: Q01DX001 (ip), vehicle: carboxymethylcellulose (CMC)
[12] = dose: 50.0 mg/kg/injection, schedule: Q01DX001 (ip), vehicle: saline
[13] = dose: 100.0 mg/kg/injection, schedule: Q01DX001 (ip), vehicle: saline

Measured: T/C

CN(C)C1CCCCCCC1
inactive: dose: 75.0 mg/kg/injection, schedule: Q01DX001 (ip), vehicle: acetone 95 % of control

O=C(COc1cccc(Cl)c1Cl)Nc1ccc[n+](Cc2ccc(S(=O)(=O)F)cc2)c1
inactive: [1] 104 % of control | [2] 100 % of control

C/C(=C/c1ccccc1)C(=O)NN
inactive: dose: 80.0 mg/kg/injection, schedule: Q01DX001 (ip), vehicle: saline with Tween-80 98 % of control | dose: 160.0 mg/kg/injection, schedule: Q01DX001 (ip), vehicle: saline with Tween-80 106 % of control

CCc1ccc(/C(C#N)=C/C=C/c2ccccc2)cc1
inactive: [3] 112 % of control | dose: 200.0 mg/kg/injection, schedule: Q04DX002 (ip), vehicle: Klucel (hydroxypropylcellulose) (HPC) 102 % of control | dose: 400.0 mg/kg/injection, schedule: Q04DX002 (ip), vehicle: Klucel (hydroxypropylcellulose) (HPC) 97 % of control

OCC1OCC(O)C(O)C1O (stereo unspecified)
inactive: [4] 94 % of control | [5] 91 % of control | dose: 200.0 mg/kg/injection, schedule: Q01DX009 (ip), vehicle: saline 88 % of control

CCC/C(=N/NC(=O)CNC(=O)c1ccccc1)c1ccccc1
inactive: [6] 100 % of control | [7] 96 % of control | [8] 92 % of control

Cc1cc(C)c2c(c1)CC2NC(=O)c1ccccc1 (stereo unspecified)
inactive: dose: 25.0 mg/kg/injection, schedule: Q04DX002 (ip), vehicle: Klucel (hydroxypropylcellulose) (HPC) 100 % of control | dose: 50.0 mg/kg/injection, schedule: Q04DX002 (ip), vehicle: Klucel (hydroxypropylcellulose) (HPC) 106 % of control | [3] 95 % of control

CCC/C(=N\NC(=O)c1ccccc1O)c1ccccc1
inactive: [9] 105 % of control | dose: 100.0 mg/kg/injection, schedule: Q01DX009 (ip), vehicle: carboxymethylcellulose (CMC) 102 % of control and 89 % of control | dose: 100.0 mg/kg/injection, schedule: Q04DX002 (ip), vehicle: carboxymethylcellulose (CMC) 95 % of control and 107 % of control | dose: 100.0 mg/kg/injection, schedule: Q04DX003 (ip), vehicle: carboxymethylcellulose (CMC) 93 % of control | [10] 100 % of control | dose: 200.0 mg/kg/injection, schedule: Q01DX009 (ip), vehicle: carboxymethylcellulose (CMC) 94 % of control and 89 % of control | dose: 200.0 mg/kg/injection, schedule: Q04DX002 (ip), vehicle: carboxymethylcellulose (CMC) 98 % of control and 102 % of control | dose: 200.0 mg/kg/injection, schedule: Q04DX003 (ip), vehicle: carboxymethylcellulose (CMC) 89 % of control | [11] 100 % of control | dose: 400.0 mg/kg/injection, schedule: Q01DX009 (ip), vehicle: carboxymethylcellulose (CMC) 94 % of control and 98 % of control | dose: 400.0 mg/kg/injection, schedule: Q04DX002 (ip), vehicle: carboxymethylcellulose (CMC) 98 % of control and 103 % of control | dose: 400.0 mg/kg/injection, schedule: Q04DX003 (ip), vehicle: carboxymethylcellulose (CMC) 98 % of control

CC(=O)OCCC/C(=C/c1ccc(/C=C(\CCCOC(C)=O)[N+](=O)[O-])cc1)[N+](=O)[O-]
inactive: [9] 92 % of control | [10] 97 % of control | [11] 91 % of control

CC12C(=O)OC(=O)C1(C)C1OC2C(Br)C1Br (stereo unspecified)
inactive: dose: 25.0 mg/kg/injection, schedule: Q01DX009 (ip), vehicle: saline with Tween-80 95 % of control | dose: 50.0 mg/kg/injection, schedule: Q01DX009 (ip), vehicle: saline with Tween-80 97 % of control | [6] 88 % of control

O=C(O)C/C(=C/c1ccc2c(c1)OCO2)C(=O)O
inactive: dose: 100.0 mg/kg/injection, schedule: Q01DX009 (sc), vehicle: olive oil, sesame oil, peanut oil 102 % of control | dose: 100.0 mg/kg/injection, schedule: Q04DX003 (sc), vehicle: olive oil, sesame oil, peanut oil 106 % of control | dose: 200.0 mg/kg/injection, schedule: Q01DX009 (sc), vehicle: olive oil, sesame oil, peanut oil 100 % of control | dose: 200.0 mg/kg/injection, schedule: Q04DX003 (sc), vehicle: olive oil, sesame oil, peanut oil 106 % of control | dose: 400.0 mg/kg/injection, schedule: Q01DX009 (sc), vehicle: olive oil, sesame oil, peanut oil 98 % of control | dose: 400.0 mg/kg/injection, schedule: Q04DX003 (sc), vehicle: olive oil, sesame oil, peanut oil 101 % of control

O=c1cc(NCc2ccccc2)[nH]c(=O)[nH]1
inactive: dose: 50.0 mg/kg/injection, schedule: Q01DX001 (ip), vehicle: Klucel (hydroxypropylcellulose) (HPC) 91 % of control | dose: 100.0 mg/kg/injection, schedule: Q01DX001 (ip), vehicle: Klucel (hydroxypropylcellulose) (HPC) 97 % of control

CC(=O)Oc1cc2c(cc1OC(C)=O)C(=O)CCC=C2
inactive: dose: 25.0 mg/kg/injection, schedule: Q04DX003 (ip), vehicle: Klucel (hydroxypropylcellulose) (HPC) 104 % of control | dose: 50.0 mg/kg/injection, schedule: Q04DX003 (ip), vehicle: Klucel (hydroxypropylcellulose) (HPC) 106 % of control | dose: 100.0 mg/kg/injection, schedule: Q01DX009 (ip), vehicle: saline sonified 95 % of control | [1] 98 % of control and 115 % of control | dose: 200.0 mg/kg/injection, schedule: Q01DX009 (ip), vehicle: saline sonified 97 % of control | [2] 102 % of control | dose: 400.0 mg/kg/injection, schedule: Q01DX009 (ip), vehicle: saline sonified 99 % of control | dose: 400.0 mg/kg/injection, schedule: Q04DX003 (ip), vehicle: Klucel (hydroxypropylcellulose) (HPC) 100 % of control

CC(C)c1nccn1Cc1ccccc1
inactive: dose: 25.0 mg/kg/injection, schedule: Q01DX001 (ip), vehicle: saline 97 % of control | dose: 25.0 mg/kg/injection, schedule: Q01DX009 (ip), vehicle: saline 105 % of control and 118 % of control | dose: 25.0 mg/kg/injection, schedule: Q04DX002 (ip), vehicle: saline 100 % of control and 101 % of control and 90 % of control | dose: 25.0 mg/kg/injection, schedule: Q04DX003 (ip), vehicle: saline 100 % of control | [12] 97 % of control | [4] 100 % of control and 102 % of control | dose: 50.0 mg/kg/injection, schedule: Q04DX003 (ip), vehicle: saline 92 % of control | dose: 75.0 mg/kg/injection, schedule: Q04DX002 (ip), vehicle: saline 106 % of control | [13] 112 % of control | [5] 100 % of control and 89 % of control

O=C1NN(c2ccccc2)CCO1
inactive: dose: 100.0 mg/kg/injection, schedule: Q01DX009 (ip), vehicle: Klucel (hydroxypropylcellulose) (HPC) 100 % of control | dose: 200.0 mg/kg/injection, schedule: Q01DX009 (ip), vehicle: Klucel (hydroxypropylcellulose) (HPC) 93 % of control

CCOC(=O)n1cnc2nc(N)nc(SC)c21
inactive: [12] 103 % of control | [13] 97 % of control | dose: 200.0 mg/kg/injection, schedule: Q01DX001 (ip), vehicle: saline 100 % of control | dose: 400.0 mg/kg/injection, schedule: Q01DX001 (ip), vehicle: saline 122 % of control

CC1=CC(C)(C)Nc2ccc(Cc3ccc4c(c3)C(C)=CC(C)(C)N4)cc21
inactive: [6] 86 % of control | [7] 100 % of control | [8] 92 % of control

CC1Nc2ccccc2NC1C (stereo unspecified)
inactive: [13] 98 % of control
